Experimental findings from PMC11866408, “LOPAC library screening identifies suramin as a TRIM21 binder with a unique binding mode revealed by crystal structure” (Acta Crystallographica Section F: Structural Biology …, 2025) are described below.

In assay [1] the target is T1, TRIM21 PRYSPRY domain (human) (Homo sapiens, UniProt P19474).
T1 construct: PRYSPRY domain, residues Val287–Leu465, His6-SUMO tag cleaved
Briefly: ITC; DSF shift […] K. It is filed as binding. Background: Isothermal titration calorimetry measures the heat released or taken up as one component is titrated into another.

In assay [2] the target is T2, TRIM21 PRYSPRY domain (mouse) (Mus musculus, UniProt Q62191).
T2 construct: PRYSPRY domain, residues Val291–Met470, N-terminal His6-tag
T2 sequence (Q62191 291-470): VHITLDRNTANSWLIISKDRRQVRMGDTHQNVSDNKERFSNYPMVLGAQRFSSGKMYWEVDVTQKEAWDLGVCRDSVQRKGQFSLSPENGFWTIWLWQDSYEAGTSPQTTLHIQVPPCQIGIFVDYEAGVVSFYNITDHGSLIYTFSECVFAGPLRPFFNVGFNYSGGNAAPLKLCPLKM
Put plainly: co-crystal structure at […] Å; ITC. It counts as binding.

Molecules are shown by their SMILES. pKd: −log10 of the molar value.

T1 sequence (P19474 287-465): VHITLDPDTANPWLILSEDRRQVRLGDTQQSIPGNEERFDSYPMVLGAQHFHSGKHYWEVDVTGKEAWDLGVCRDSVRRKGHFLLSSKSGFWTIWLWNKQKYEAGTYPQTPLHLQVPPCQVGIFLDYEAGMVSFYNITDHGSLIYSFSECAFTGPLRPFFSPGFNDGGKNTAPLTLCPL

By pKd is commonly meant the negative decadic logarithm of the Kd, by convention in mol/L. In the case of `Cc1ccc(C(=O)Nc2ccc(S(=O)(=O)O)c3cc(S(=O)(=O)O)cc(S(=O)(=O)O)c23)cc1NC(=O)c1cccc(NC(=O)Nc2cccc(C(=O)Nc3cc(C(=O)Nc4ccc(S(=O)(=O)O)c5cc(S(=O)(=O)O)cc(S(=O)(=O)O)c45)ccc3C)c2)c1` [suramin], the pKd in assay [1] was about 5.10; in assay [2], about 5.05.
